Source: paper PMC10305287, “Design, Synthesis, and Evaluation of the COX-2 Inhibitory Activities of New 1,3-Dihydro-2H-indolin-2-one Derivatives” (Molecules, 2023)
“Also recorded” adds a separate entry of the source.

Legend:
[1] = system: NO production in LPS-stimulated RAW 264.7 cells; assay: Inhibition of NO production in LPS-stimulated RAW 264.7 cells; assay type: cell-based, murine; details: for Anti-inflammatory activity, NO production (in words): LPS-stimulated RAW 264.7 cells; for IC50: LPS-activated RAW 264.7 cells, mean ± SD, n = 3
Description: RAW 264.7 cells were cultured in DMEM medium supplemented with 10% fetal bovine serum and 1% penicillin/streptomycin at 37 °C and 5% CO2 in a saturated humidified incubator. Then cells were seeded in 24-well plates (4 × 10^5 cells/well) after 24 h of incubation and treated with different concentrations of compounds (80, 40, 20, and 5 μM) for 2 h. The cells were stimulated with LPS (5 μg/mL) for 24 h, the supernatant was transferred to a new 24-well microtiter plate, and the NO concentration in the cell supernatant was calculated using an NO detection kit (Beyotime Company, Shanghai, China).

RAW 264.7 cells = assay: Cytotoxicity assay (CCK-8) on RAW 264.7 cells; assay type: cell-based, mouse
Description: The RAW 264.7 murine macrophage cells were obtained from the Cell Bank of the Chinese Academy of Sciences (Shanghai, China). RAW 264.7 cells were cultured in DMEM (Dulbecco’s Modified Eagle Medium) medium supplemented with 10% fetal bovine serum and 1% penicillin/streptomycin at 37 °C and 5% CO2 in a saturated humidified incubator. The Cell Counting Kit-8 (CCK-8) method was used to evaluate the cytotoxicity of all the compounds on RAW 264.7 cells in vitro. […] After 24 h of cultivation, the cells were incubated with a CCK-8 solution (10 µL). After incubation at 37 °C and 5% CO2 for 2–4 h, the optical density (OD) was recorded at 450 nm by a microplate reader. The half-maximal inhibitory concentration (IC50) was calculated by SPSS 22.0 software. PDTC was used as a positive control.

[2] = target: T1, human recombinant COX-2 enzyme (Homo sapiens, UniProt P35354); assay: In vitro COX-2 inhibitory assay (Cyclooxygenase-2 Inhibitor Screening Kit); assay type: biochemical; details: for IC50: human recombinant COX-2, fluorescence kit, mean ± SD, n = 3; for COX-2 inhibitory activity (in words): human recombinant COX-2, screening kit
T1 construct: purchased Beyotime Company, Shanghai, China
T1 sequence (P35354 18-604): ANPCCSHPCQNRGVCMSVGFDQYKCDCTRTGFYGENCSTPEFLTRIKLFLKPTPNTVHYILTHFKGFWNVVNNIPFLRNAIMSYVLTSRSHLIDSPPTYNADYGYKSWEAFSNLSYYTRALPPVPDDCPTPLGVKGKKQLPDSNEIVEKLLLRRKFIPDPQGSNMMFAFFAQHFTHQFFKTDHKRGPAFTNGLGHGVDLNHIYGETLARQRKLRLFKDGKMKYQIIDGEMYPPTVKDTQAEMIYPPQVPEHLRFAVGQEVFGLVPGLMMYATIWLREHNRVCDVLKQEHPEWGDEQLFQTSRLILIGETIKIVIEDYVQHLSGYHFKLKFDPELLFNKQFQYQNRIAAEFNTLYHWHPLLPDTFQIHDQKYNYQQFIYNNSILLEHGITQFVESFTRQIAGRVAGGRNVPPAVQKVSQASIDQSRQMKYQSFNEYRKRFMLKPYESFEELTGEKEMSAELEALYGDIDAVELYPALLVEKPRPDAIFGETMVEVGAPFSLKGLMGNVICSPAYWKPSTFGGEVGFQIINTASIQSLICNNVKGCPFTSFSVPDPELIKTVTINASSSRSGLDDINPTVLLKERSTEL
Description: The reaction was started by the addition of COX-2 substrate and allowed to proceed for 5 min. The intensity of fluorescence at an emission wavelength of 590 nm upon 560 nm excitation was measured using a microplate reader (Thermo Varioskan LUX, Waltham, MA, USA). All tests were repeated three times independently.

COX-2 = details: read-out: IC50 (COX-2); cited from earlier work
[3] = CCK-8, concentration not stated

melting point	IC50 ([1]; Mus musculus, RAW264.7)	IC50 [1]	IC50 [2]	COX-2 inhibitory activity (in words) [2]	SMILES	Anti-inflammatory activity, NO production (in words) [1]	Cytotoxicity (in words) (RAW 264.7 cells; [3])	Cytotoxicity (in words) (RAW 264.7 cells; CCK-8, at 100 μM)	IC50 (COX-2)
191.1 to 191.5 °C			2.42 ± 0.1 µM	good inhibitory activity	O=C1Cc2cc(N=Cc3cc(C(F)(F)F)cc(C(F)(F)F)c3)ccc2N1 [Compound 9i, 5-((3,5-bis(trifluoromethyl)benzylidene)amino)indolin-2-one]	no anti-inflammatory activity	no cytotoxicity	almost no cytotoxicity	
191.1 to 191.5 °C					Cc1ccc(S(=O)(=O)Nc2ccc3c(c2)C(=Cc2cccc(C(F)(F)F)c2)C(=O)N3)cc1 [Compound 9f]				
226.5 to 226.9 °C	10 ± 0.27 µM				O=C1Nc2ccc(NS(=O)(=O)c3ccc([N+](=O)[O-])cc3)cc2C1=Cc1cccc(C(F)(F)F)c1 [Compound 9d]	obvious anti-inflammatory activity	weak cytotoxicity		
166.3 to 166.8 °C			2.35 ± 0.04 µM	good inhibitory activity	O=C1Cc2cc(/N=C/c3cccc(C(F)(F)F)c3)ccc2N1 [Compound 9h]	no anti-inflammatory activity	no cytotoxicity	almost no cytotoxicity	

The remaining lines, values behind:

SMILES	melting point	IC50 ([1]; Mus musculus, RAW264.7)	IC50 [1]	IC50 [2]	COX-2 inhibitory activity (in words) [2]	Anti-inflammatory activity, NO production (in words) [1]	Cytotoxicity (in words) (RAW 264.7 cells; [3])	Cytotoxicity (in words) (RAW 264.7 cells; CCK-8, at 100 μM)	IC50 (COX-2)
CC(=O)N1C(=O)C(=Cc2cccc(C(F)(F)F)c2)c2ccccc21 [Compound 4j]	121.5 to 123.3 °C	16.3 ± 0.35 µM				obvious anti-inflammatory activity	weak cytotoxicity		
S=C(S)N1CCCC1 [PDTC, Ammonium pyrrolidinedithiocarbamate, reference compound]			13.7 ± 0.88 µM						
CC(=O)N1C(=O)/C(=C/c2cccc(C(F)(F)F)c2)c2ccc(C(F)(F)F)cc21 [Compound 4b]	91.3 to 92.8 °C								
CC(=O)N1C(=O)C(=Cc2ccccc2C(F)(F)F)c2ccc(Cl)cc21 [Compound 4k]	131 to 133.6 °C			> 20 µM					
CC(=O)N1C(=O)C(=Cc2cccc(C(F)(F)F)c2)c2cc(N)ccc21 [Compound 4e]	165.9 to 166.2 °C	13.5 ± 0.48 µM		3.34 ± 0.05 µM		obvious anti-inflammatory activity	weak cytotoxicity	almost no cytotoxicity; also recorded: no significant cytotoxicity	
CC(=O)N1C(=O)/C(=C\c2cccc(C(F)(F)F)c2)c2ccc(C(F)(F)F)cc21 [Compound 4a]	131.2 to 132.1 °C	17.8 ± 1.86 µM		19.9 ± 4.76 µM		obvious anti-inflammatory activity	weak cytotoxicity		
CC(=O)N1C(=O)C(=Cc2ccc(C(F)(F)F)cc2)c2ccc(Cl)cc21 [Compound 4i]	142.9 to 144.1 °C	20.4 ± 1.61 µM				obvious anti-inflammatory activity	weak cytotoxicity		
COc1cccc(C=C2C(=O)N(C(C)=O)c3cc(Cl)ccc32)c1 [Compound 4s]	141.3 to 143.2 °C							almost no cytotoxicity	
